Legend:
Felis catus [1] = test: Effect of intraperitoneal infusion on diastolic pressure in Anesthetized cats at a dose of 200 mg/kg at 90 min; format: functional
Felis catus [2] = test: Effect of intraperitoneal infusion on diastolic pressure in Anesthetized cats at a dose of 200 mg/kg at 60 min; format: functional
Felis catus [3] = test: Effect of intravenous infusion on respiration frequency in Anesthetized cats at a dose of 0.30 mg/kg at 2 min; format: functional; conditions: dose 0.3 mg/kg
Cavia porcellus [4] = species: Cavia porcellus; test: Chronotropic activity on left and right guinea pig artia (beats/min), at 15 min; format: functional
Felis catus [5] = test: Effect of intraperitoneal infusion on respiration frequency in Anesthetized cats at a dose of 200 mg/kg at 18 0 min; format: functional
Felis catus [6] = test: Effect of intravenous infusion on systolic pressure in Anesthetized cats at a dose of 1.50 mg/kg at 10 min; format: functional; conditions: dose 1.5 mg/kg
Cavia porcellus [7] = species: Cavia porcellus; test: Effect on guinea pig artia (beats/min), at the a dose of 10e-6 M; format: functional
Felis catus [8] = test: Effect of intraperitoneal infusion on diastolic pressure in Anesthetized cats at a dose of 200 mg/kg at 165 min; format: functional
Felis catus [9] = test: Effect of intravenous infusion on diastolic pressure in Anesthetized cats at a dose of 0.30 mg/kg at 2 min; format: functional; conditions: dose 0.3 mg/kg
Cavia porcellus [10] = species: Cavia porcellus; test: Chronotropic activity on left and right guinea pig artia (beats/min), at 150 min; format: functional
Felis catus [11] = test: Effect of intravenous infusion on respiration frequency in Anesthetized cats at a dose of 3 mg/kg at 20 min; format: functional
Felis catus [12] = test: Effect of intravenous infusion on diastolic pressure in Anesthetized cats at a dose of 3.0 mg/kg at 20 min; format: functional
Felis catus [13] = test: Effect of intraperitoneal infusion on systolic pressure in Anesthetized cats at a dose of 200 mg/kg at 45 min; format: functional
Felis catus [14] = test: Effect of intravenous infusion on systolic pressure in Anesthetized cats at a dose of 2.25 mg/kg at 15 min; format: functional
Felis catus [15] = test: Effect on cardiac frequency in Anesthetized cats at a dose of 2.25 mg/kg at 15 min; format: functional, Heart
Felis catus [16] = test: Effect of intraperitoneal infusion on diastolic pressure in Anesthetized cats at a dose of 200 mg/kg at 120 min; format: functional
Felis catus [17] = test: Effect of intraperitoneal infusion of compound on cardiac frequency in Anesthetized cats at a dose of 200 mg/kg at 90 min; format: functional, Heart
Felis catus [18] = test: Effect of intravenous infusion on systolic pressure in Anesthetized cats at a dose of 0 mg/kg at 0 min; format: functional
Felis catus [19] = test: Effect of intraperitoneal infusion on diastolic pressure in Anesthetized cats at a dose of 200 mg/kg at 150 min; format: functional
Felis catus [20] = test: Effect of intraperitoneal infusion on systolic pressure in Anesthetized cats at a dose of 200 mg/kg at 30 min; format: functional
Cavia porcellus [21] = species: Cavia porcellus; test: Chronotropic activity on left and right guinea pig artia (beats/min), at 90 min; format: functional
Felis catus [22] = test: Effect of intraperitoneal infusion on systolic pressure in Anesthetized cats at a dose of 200 mg/kg at 0 min; format: functional
Cavia porcellus [23] = species: Cavia porcellus; test: Chronotropic activity on left and right guinea pig artia (beats/min), at 60 min; format: functional
Felis catus [24] = test: Effect of intraperitoneal infusion on systolic pressure in Anesthetized cats at a dose of 200 mg/kg at 150 min; format: functional
Felis catus [25] = test: Effect of intraperitoneal infusion on respiration frequency in Anesthetized cats at a dose of 200 mg/kg at 150 min; format: functional
Oryctolagus cuniculus [26] = species: Oryctolagus cuniculus; test: Effect on 35 mM K+-induced contraction on rabbit aorta at a dose of 3*10e-6 mol/L; format: functional
Cavia porcellus [27] = species: Cavia porcellus; test: Effect on guinea pig artia (beats/min), at the a dose of 10e-9 M; format: functional
Felis catus [28] = test: Effect of intravenous infusion of compound on diastolic pressure in Anesthetized cats at a dose of 3 mg/kg at 20 min; format: functional
Cavia porcellus [29] = species: Cavia porcellus; test: Chronotropic activity on left and right guinea pig artia (beats/min), at 0 min; format: functional
Felis catus [30] = test: Effect of intraperitoneal infusion of compound on cardiac frequency in Anesthetized cats at a dose of 200 mg/kg at 75 min; format: functional, Heart
Oryctolagus cuniculus [31] = species: Oryctolagus cuniculus; test: Effect on 35 mM K+-induced contraction on rabbit aorta at a dose of 3*10e-7 mol/L; format: functional
Cavia porcellus [32] = species: Cavia porcellus; test: Chronotropic activity on left and right guinea pig artia (beats/min), at 45 min; format: functional
Felis catus [33] = test: Effect of intraperitoneal infusion of compound on cardiac frequency in Anesthetized cats at a dose of 200 mg/kg at 0 min; format: functional, Heart
Cavia porcellus [34] = species: Cavia porcellus; test: Effect on guinea pig artia (beats/min), at the a dose of 10e-8 M; format: functional
Felis catus [35] = test: Effect of intravenous infusion on cardiac frequency in Anesthetized cats at a dose of 1.50 mg/kg at 10 min; format: functional, Heart; conditions: dose 1.5 mg/kg
Felis catus [36] = test: Effect of intraperitoneal infusion of compound on cardiac frequency in Anesthetized cats at a dose of 200 mg/kg at 105 min; format: functional, Heart
Felis catus [37] = test: Effect of intraperitoneal infusion on systolic pressure in Anesthetized cats at a dose of 200 mg/kg at 105 min; format: functional
Cavia porcellus [38] = species: Cavia porcellus; test: Effect on guinea pig artia (beats/min), at the a dose of 0 M; format: functional
Felis catus [39] = test: Effect of intraperitoneal infusion on diastolic pressure in Anesthetized cats at a dose of 200 mg/kg at 15 min; format: functional
Cavia porcellus [40] = species: Cavia porcellus; test: Chronotropic activity on left and right guinea pig artia (beats/min), at 30 min; format: functional
Felis catus [41] = test: Effect of intraperitoneal infusion on diastolic pressure in Anesthetized cats at a dose of 200 mg/kg at 45 min; format: functional
Felis catus [42] = test: Effect of intraperitoneal infusion on respiration frequency in Anesthetized cats at a dose of 200 mg/kg at 105 min; format: functional
Felis catus [43] = test: Effect of intraperitoneal infusion on respiration frequency in Anesthetized cats at a dose of 200 mg/kg at 0 min; format: functional
Oryctolagus cuniculus [44] = species: Oryctolagus cuniculus; test: Effect on 35 mM K+-induced contraction on rabbit aorta at a dose of 3*10e-8 mol/L; format: functional
Cavia porcellus [45] = species: Cavia porcellus; test: Effect on guinea pig artia (beats/min), at the a dose of 10e-7 M; format: functional
Oryctolagus cuniculus [46] = species: Oryctolagus cuniculus; test: Effect on 35 mM K+-induced contraction on rabbit aorta at a dose of 10E-8 mol/L; format: functional
Oryctolagus cuniculus [47] = species: Oryctolagus cuniculus; test: Effect on 35 mM K+-induced contraction on rabbit aorta at a dose of 10E-7 mol/L; format: functional
Felis catus [48] = test: Effect of intraperitoneal infusion on systolic pressure in Anesthetized cats at a dose of 200 mg/kg at 60 min; format: functional

CCO/C(O)=C1\C(C)=NC(C)=C(C(=O)OCCN2C(=O)c3ccccc3S2(=O)=O)C1C (stereo not given)
Arterial pressure (Felis catus [1]): 85 mmHg
Arterial pressure (Felis catus [2]): 85 mmHg
Respiratory frequency (Felis catus [3]): 18 r.p.m.
Beats/min (Cavia porcellus [4]): 138
Control (Cavia porcellus [4]): 100.7%
Respiratory frequency (Felis catus [5]): 15 r.p.m.
Arterial pressure (Felis catus [6]): 160 mmHg
Beats/min (Cavia porcellus [7]): 181
Control (Cavia porcellus [7]): 98.5%
Arterial pressure (Felis catus [8]): 80 mmHg
Arterial pressure (Felis catus [9]): 115 mmHg
Beats/min (Cavia porcellus [10]): 129
Control (Cavia porcellus [10]): 94.2%
Respiratory frequency (Felis catus [11]): 18 r.p.m.
Arterial pressure (Felis catus [12]): 160 mmHg
Arterial pressure (Felis catus [13]): 125 mmHg
Arterial pressure (Felis catus [14]): 162 mmHg
Cardiac frequency (Felis catus [15]): 217 beats min-1
Arterial pressure (Felis catus [16]): 85 mmHg
Cardiac frequency (Felis catus [17]): 256 beats min-1
Arterial pressure (Felis catus [18]): 165 mmHg
Arterial pressure (Felis catus [19]): 80 mmHg
Arterial pressure (Felis catus [20]): 135 mmHg
Beats/min (Cavia porcellus [21]): 133
Control (Cavia porcellus [21]): 97.1%
Arterial pressure (Felis catus [22]): 130 mmHg
Beats/min (Cavia porcellus [23]): 136
Control (Cavia porcellus [23]): 99.3%
Arterial pressure (Felis catus [24]): 140 mmHg
Respiratory frequency (Felis catus [25]): 15 r.p.m.
Inhibition (Oryctolagus cuniculus [26]): 71.3%
Beats/min (Cavia porcellus [27]): 193
Control (Cavia porcellus [27]): 105.6%
Arterial pressure (Felis catus [28]): 110 mmHg
Beats/min (Cavia porcellus [29]): 137
Control (Cavia porcellus [29]): 100%
Cardiac frequency (Felis catus [30]): 255 beats min-1
Inhibition (Oryctolagus cuniculus [31]): 23.89%
Beats/min (Cavia porcellus [32]): 138
Control (Cavia porcellus [32]): 100.4%
Cardiac frequency (Felis catus [33]): 260 beats min-1
Beats/min (Cavia porcellus [34]): 176
Control (Cavia porcellus [34]): 96.3%
Cardiac frequency (Felis catus [35]): 210 beats min-1
Cardiac frequency (Felis catus [36]): 259 beats min-1
Arterial pressure (Felis catus [37]): 140 mmHg
Beats/min (Cavia porcellus [38]): 183
Control (Cavia porcellus [38]): 100%
Arterial pressure (Felis catus [39]): 90 mmHg
Beats/min (Cavia porcellus [40]): 138
Control (Cavia porcellus [40]): 100.7%
Arterial pressure (Felis catus [41]): 85 mmHg
Respiratory frequency (Felis catus [42]): 12 r.p.m.
Respiratory frequency (Felis catus [43]): 14 r.p.m.
Inhibition (Oryctolagus cuniculus [44]): 0%
Beats/min (Cavia porcellus [45]): 181
Control (Cavia porcellus [45]): 98.6%
Inhibition (Oryctolagus cuniculus [46]): 0%
Inhibition (Oryctolagus cuniculus [47]): 12.6%
Arterial pressure (Felis catus [48]): 130 mmHg

Reference: ChEMBL document CHEMBL1123971, “Synthesis, platelet aggregation inhibitory activity, and in vivo antithrombotic activity of new 1,4-dihydropyridines” (J Med Chem, 1988)
